Assay results from publication PMC4935745, “Synthesis and stereochemical determination of an antiparasitic pseudo-aminal type monoterpene indole alkaloid” (Journal of Natural Medicines, 2016).
Values after ≈ are worked out from the molar mass of the structure shown. Where two headings read alike, the source gives them in different places.

Experiments:
Assay type in all cases: cell-based
[1] = Cytotoxicity against human MRC-5 cells; conditions: human
Method: (§1) Naturally occurring and synthetic compounds were tested for antimalarial activity against Plasmodium falciparum parasites (chloroquine-resistant K1 strain and chloroquine-susceptible FCR3 strain) and for cytotoxicity (against human MCR-5 cells), in comparison with the first-line antimalarial artemisinin.

[2] = system: Plasmodium falciparum (chloroquine-resistant K1 strain); assay: In vitro antimalarial activity, K1 strain; conditions: for Selectivity index (SI) M/K: MRC-5/K1; for IC50: Plasmodium falciparum, K1, chloroquine-resistant strain
Method: as §1

[3] = system: Plasmodium falciparum (chloroquine-susceptible FCR3 strain); assay: In vitro antimalarial activity, FCR3 strain; conditions: for Selectivity index (SI) M/F: MRC-5/FCR3; for IC50: Plasmodium falciparum, FCR3, chloroquine-sensitive strain, in vitro
Method: as §1

MRC-5 cells = assay: Cytotoxicity against human MRC-5 cells; conditions: human MRC-5 cells
Method: as §1

[4] = MRC-5 cells, human MRC-5 cells, read-out: Cytotoxicity MRC-5 IC50

IC50 ([2]; in vitro)	IC50 [3]	Antimalarial activity K1 IC50 ([2]; chloroquine-resistant strain, in vitro)	Structure (SMILES)	IC50 [1, 4]	Selectivity index (SI) M/K [2]	Selectivity index (SI) M/F [3]	Cytotoxicity MRC-5 IC50 (MRC-5 cells)	Antimalarial activity against chloroquine-resistant P. falciparum (in words) ([2]; K1 strain, in vitro)	IC50 ([1]; Cytotoxicity MRC-5 IC50)
7.58 µg/mL (≈ 24.1 µM)	7.17 µg/mL (≈ 22.8 µM)	–	C/C=C(/CO)[C@H](CCN=[N+]=[N-])[C@@](C)(O)c1cc2ccccc2[nH]1 [(−)-(15S,16R)-33]	17.8 µg/mL (≈ 56.6 µM)	2.3	2.5	–	–	–
8.04 µg/mL (≈ 18.4 µM)	> 12.5 µg/mL	–	C/C=C(/COc1ncccc1[N+](=O)[O-])[C@H](CCN=[N+]=[N-])[C@@](C)(O)c1cc2ccccc2[nH]1 [(−)-(15S,16R)-34]	> 100 µg/mL	>12.4	–	–	–	–
9.38 µg/mL (≈ 48 µM)	> 12.5 µg/mL	–	C/C=C1/C(=O)O[C@H](C)[C@H]1CCN=[N+]=[N-] [(−)-(15S,16R)-39]	54 µg/mL (≈ 277 µM)	5.8	<4.3	–	–	–
0.006 µg/mL (≈ 0.0213 µM)	0.006 µg/mL (≈ 0.0213 µM)	–	C[C@@H]1CC[C@H]2[C@@H](C)C(=O)O[C@@H]3O[C@@]4(C)CC[C@@H]1[C@]32OO4 [Artemisinin, reference compound]	–	7528	7528	–	–	45.2 µg/mL (≈ 160 µM)

Continued, compound first:

Structure (SMILES)	IC50 ([2]; in vitro)	IC50 [3]	Antimalarial activity K1 IC50 ([2]; chloroquine-resistant strain, in vitro)	IC50 [1, 4]	Selectivity index (SI) M/K [2]	Selectivity index (SI) M/F [3]	Cytotoxicity MRC-5 IC50 (MRC-5 cells)	Antimalarial activity against chloroquine-resistant P. falciparum (in words) ([2]; K1 strain, in vitro)	IC50 ([1]; Cytotoxicity MRC-5 IC50)
C/C=C1/CNCC[C@@H]1[C@@](C)(O)c1cc2ccccc2[nH]1 (racemic) [(±)-(15S,16R)-37]	8.98 µg/mL (≈ 33.2 µM)	> 12.5 µg/mL	–	40.8 µg/mL (≈ 151 µM)	4.5	<3.3	–	–	–
CC=C1CN2CCC1C(C)(O)c1[nH]c3ccccc3c1C2 (racemic) [Synthetic (±)-(15S*,16S*)-1, (±)-(15S*,16S*)-16-hydroxy-16,22-dihydroapparicine]	> 12.5 µg/mL	–	–	33.3 µg/mL (≈ 118 µM)	–	–	–	–	–
CC=C1CN2CCC1C(C)(O)c1[nH]c3ccccc3c1C2 (single isomer, unassigned; (+)) [Synthetic (+)-(15S,16R)-1]	–	8.37 µg/mL (≈ 29.6 µM)	9.00 µg/mL	–	5.7	6.1	51.2 µg/mL	moderate/weak antimalarial activity	–
C/C=C(/COC(=O)C(C)(C)C)[C@H](CCN=[N+]=[N-])[C@@](C)(O)c1cc2ccccc2n1CO[Si](C)(C)C(C)(C)C [(−)-(15S,16R)-32]	> 12.5 µg/mL	> 12.5 µg/mL	–	–	–	–	–	–	–
